# Experimental data published in US11185598B2, “Preparation of stabilised x-ray diagnostic composition” (GE HEALTHCARE AS, priority 2010, dated 2021).
# Experiments:
# Type in all cases: physicochemical
# [1] = Saturation / dissolution temperature of contrast agent solution in water
# Excerpt: The injection solution of Compound I is highly supersaturated. The nucleation (precipitation) in the injection solution at storage conditions is strongly undesirable. The physical stability of the solution, i.e. prevention of the nucleation for a certain time at storage conditions, may be improved substantially by heat treatment of the solution well above its saturation temperature for a sufficiently long period of time. A solution in which the concentration of the solute (API) exceeds the equilibrium solute concentration at a given temperature is said to be supersaturated. […] Such solutions are denoted as supersaturated. Saturation temperature is the temperature where all solid API (amorphous and crystalline) apparently dissolves completely. As the solubility of Compound I decreases with decreasing temperature, the supersaturation increases.
# For a compound or contrast agent with a defined crystalline state (single polymorph) at one side, and a solvent including dissolved admixtures on the other, the concentration of the agent in the solution in equilibrium with the crystalline state is called solubility. At this concentration the activity of the agent is equal in both phases. A system out of the equilibrium stage tends to change the solution concentration towards the equilibrium (solubility), e.g. dissolve crystals when under-saturated, or crystallize out compound when supersaturated. Normally, the solubility changes, usually increases, with temperature. For the purpose, we define the temperature at which the crystal solubility is equal to the concentration in the particular solution as “dissolution temperature”. When a solution contains crystals, the crystals dissolve at temperatures above the “dissolution temperature”, remaining a crystal free solution. When the amount of the crystals is small, the concentration increase by dissolution may be neglected.
# [2] = Solubility in water (comparison)
# [3] = Iodide level after steam heat sterilisation, conventional heating regime; details: 134° C. for 45 minutes, no reduced pH
# Protocol: During the development of new iodinated X-ray contrast agents, several heating regimes have been tested to find the parameters to be used for the secondary productions. Among these are end heat steam sterilization at 134° C. or 121° C. for 45 minutes or more, pre-heating in the mixing tank above the dissolution temperature (e.g. 110-111° C./330 mg I/ml) using different regimes followed by end heat steam sterilization etc. Although some of these heating regimes might be capable of providing a physically stable solution, they may cause high levels of free iodide due to degeneration of the iodinated X-ray contrast agent (Scheme 1). […] This is above the acceptable level.
# [4] = Stability of Compound I at different pH: inorganic iodide and pH after autoclaving; details: 320 mg I/ml, 121° C. 120 minutes or 134° C. 60 minutes
# Protocol: Experiments were performed to investigate the level of inorganic iodide generated as a result of degeneration of Compound I as a result of a pH and heating regime. Reference is made to FIGS. 1 and 2. The heat load was controlled by using a BIER-vessel for the steam heat sterilisation. Formulated Compound I (drug product, DP, 320 mg I/ml) was added 25% HCl to obtain 4 series of 6 vials with a pH of 2.0, 3.1, 4.0 and 7.7, respectively.
# DP (10 ml) was filled in 10 ml vials. 3 vials from each series were autoclaved at 121° C. for 120 minutes and the remaining 3 vials were autoclaved at 134° C. for 60 minutes. The samples, including 2 reference samples, were subjected to pH and iodide analyses.
# [5] = Inorganic iodide in X-ray composition prepared by the process of the invention (400 litre batch); details: 320 mg I/ml
# Protocol: 261 kg of Compound I was dissolved in 250 litres of water for injection (WFI) and added 44 g Na2Ca-EDTA.2H2O in the mixing tank (A). HCl 5M was used to set the solution to pH 3. Under these conditions, to the composition underwent heating for 40 minutes at 122° C. […] This solution was cooled to approximately 50° C. and filtered through a 10 kDa ultrafilter. The remaining WFI to yield a solution of 320 mg I/ml of compound I was used to rinse the ultrafilter by dilution of the concentrated retentate. The filtered solution was dispensed and autoclaved for 20 minutes at 121° C. After autoclaving, the concentration of inorganic iodide was 10 μg/ml, which is approximately a fifth of the concentration resulting from a conventional production not using the process of the invention.
dissolution temperature ([1]; at 330 mg I/ml),"dissolution temperature ([1]; water for injection as solvent, concentration range 270-380 mg I/ml)",solubility in water compared with iodixanol [2],iodide levels after steam heat sterilisation [3],change in pH after autoclaving ([4]; start pH in the range 2-4),iodide levels after autoclaving ([4]; start pH in the range 2-4),change in pH after autoclaving ([4]; start pH of 7.7),iodide levels after autoclaving ([4]; start pH of 7.7),inorganic iodide concentration relative to conventional production not using the process ([5]; after autoclaving),"concentration of inorganic iodide after autoclaving ([5]; heated 40 minutes at 122° C. at pH 3, then pH 7.3, autoclaved 20 minutes at 121° C.)",Compound,saturation temperature ([1]; solution of about 320 mg I/ml in water)
110-111 °C,~110 °C,lower solubility in water than iodixanol,75-85 μg I/ml,no significant change in pH,only a minor increase in iodide levels,corresponding drop in pH,high iodide levels,approximately a fifth,10000 ng/mL,"O=CN(CC(O)CN(C=O)c1c(I)c(C(=O)NCC(O)CO)c(I)c(C(=O)NCC(O)CO)c1I)c1c(I)c(C(=O)NCC(O)CO)c(I)c(C(=O)NCC(O)CO)c1I (centres unmarked) [Compound I, 5-[formyl-[3-[formyl-[3,5-bis(2,3-dihydroxypropylcarbamoyl)-2,4,6-triiodophenyl]amino]-2-hydroxypropyl]amino]-N,N′-bis(2,3-dihydroxypropyl)-2,4,6-triiodobenzene-1,3-dicarboxamide]",–
–,–,–,–,–,–,–,–,–,–,"CC(=O)N(CC(O)CN(C(C)=O)c1c(I)c(C(=O)NCC(O)CO)c(I)c(C(=O)NCC(O)CO)c1I)c1c(I)c(C(=O)NCC(O)CO)c(I)c(C(=O)NCC(O)CO)c1I (centres unmarked) [iodixanol, reference compound]",approximately 92 °C
